According to patent US20170050966A1, “INHIBITING THE TRANSIENT RECEPTOR POTENTIAL A1 ION CHANNEL” (HYDRA BIOSCIENCES, INC., priority 2014, published 2017):
In brackets after ≈: the same amount, converted by molar mass. Like-named read-outs stand apart in the source and are kept apart here.

Tests used:
[1] = Solubility in fasted-state simulated intestinal fluid (FaSSIF); assay type: physicochemical; conditions: thermodynamic from solid, pH 6.5, 25° C., read-out: Solubility in the FaSSIF model
Description: Solubility was also determined in a fasted-state simulated intestinal fluid (FaSSIF) assay. Briefly, Compound 2 was added to the FaSSIF medium (bile salts, NaOH (0.420 g), NaH2PO4 (3.438 g), NaCl (6.186 g), pH to 6.5, at 25° C., and brought to a 1 L volume) agitated for 30 hours and sampled, centrifuged, and analyzed by UPLC. Solubility in the FaSSIF model was determined to be 1.19 mg/ml.

[2] = Plasma protein binding, equilibrium dialysis; assay type: in vitro ADME; conditions: pooled K2EDTA plasma, read-out: Mean % Bound ± SD (converted)
Description: With this method, free compound is separated from protein-bound compound by dialysis across a semi-permeable membrane.
The protein binding was tested at a concentration of 1 μM. Pooled human, cynomolgus monkey, dog, and rat K2EDTA plasma was thawed and centrifuged at 2000×g for 10 minutes at 4° C. to remove particulates; any lipid on the top of the supernatant was also removed by aspiration. The plasma was warmed to 37° C. for 10 minutes before use. Test compounds were spiked into 2 ml plasma in a polypropylene plate to a final concentration of 1 μM. Triplicate 400 μl aliquots of spiked plasma were transferred into the Thermo RED dialysis units and dialyzed against 600 μl of PBS buffer. […] After 6 hours dialysis, triplicate 50 μl aliquots were removed from the RED plate, matrix-matched with either PBS buffer or blank plasma, as appropriate, and quenched with 4 volumes of ACN containing an internal standard. The extracted samples were then centrifuged at 2000×g for 5 minutes at 4° C. The supernatant (50 μl) was removed and diluted with 100 μl water prior to LC/MS/MS bioanalysis.

rTRPA1 = target: T1, rTRPA1 (Rattus norvegicus, UniProt Q6RI86); assay: TRPA1 IC50, whole-cell patch clamp; assay type: cell-based; conditions: rTRPA1, 10 μM AITC; read-out: IC50 Inward current
T1 construct: expressed in transfected cells

[3] = Oral PK and bioavailability of micronized Compound 2 suspension; assay type: in vivo, Sprague-Dawley rats
Description: Additional studies were conducted with micronized Compound 2 in rat, dogs (beagles), and cynomolgus monkeys. Animals received a 10 mg/kg dose oral dose of compound formulated as a suspension in 0.5% methyl cellulose in water for injection at a target concentration of 1 mg/mL, and administered a dose volume of 10 mL/kg by oral gavage in rats or fasted dogs and via oral delivery in fasted cynomolgus monkeys. The % F for the rats in these studies was 85%, 36% for the dogs, and 19% for the monkeys. FIG. 11 depicts the pharmacokinetic profile for these species.
Several in vivo studies were performed to characterize the bioavailability of Compound 2. In Sprague-Dawley rats, a single oral dose of 10 mg/kg to 1000 mg/kg of Compound 2 were compared in a series of experiments. Compound 2 used in these studies was recrystallized from ethanol and micronized.

[4] = Plasma levels in CFA cold hypersensitivity study; assay type: in vivo, rat
Description: Table 16 summarizes the average plasma levels of Compound 2 and Compound A. Approximately dose proportional exposures of Compound 2 were observed throughout the dose range tested. Decreased plasma binding of Compound 2 indicates an improved bioavailability of Compound 2 to the subjects over Compound A.

[5] = CYP450 reaction phenotyping in human liver microsomes; assay type: in vitro ADME; conditions: human liver microsomes with and without selective CYP450 inhibitors
Description: CYP450 reaction phenotyping of Compound 2 was conducted by incubating the test article with human liver microsomes in the presence and absence of selective CYP450 inhibitors.

sprague-dawley rats = assay: Hepatotoxicity safety profile, serum biomarkers; assay type: in vivo; conditions: for ALP d28 / ALT d28 / AST d28 / GGT d28: day 28
Description: Compound 2 in the vehicle (0.5% methylcellulose [400 cps]) was administered orally by gavage once daily for a minimum of 28 consecutive days to 3 groups of sprague-dawley rats from Charles River Laboratories. Each group received one dosage level. Dosage levels were 30, 100, and 300 mg/kg/day for each group. […] The dose volume was 10 ml/kg for all groups. Hepatoxicity was measured via the serum biomarkers of alanine aminotransferease [ALT], aspartate aminotransferase [AST], alkaline phosphastase [ALP] and gamma-glutamyl transferase [GGT] which represent hepatotoxicity or bile duct injury.

cynomolgus monkeys = assay: Hepatotoxicity safety profile, serum biomarkers; assay type: in vivo; conditions: for ALP d28 / ALT d28 / AST d28 / GGT d28: day 28
Description: Compound 2 in the vehicle (0.5% methylcellulose, 400 cps) was administered via nasogastric intubation once daily for 28 or 29 consecutive days to 4 groups of cynomolgus monkeys. Each group received one dose level. Dosage levels were 10, 30, 100, and 300 mg/kg/day per group. […] The dosage volume was 10 ml/kg for all groups. Hepatoxicity was measured via the serum biomarkers of alanine aminotransferease [ALT], aspartate aminotransferase [AST], alkaline phosphastase [ALP] and gamma-glutamyl transferase [GGT] which represent hepatotoxicity or bile duct injury.

CYP2B6 = CYP2B6 (Homo sapiens, UniProt P20813); assay: in vitro; conditions: probe Buproprion
CYP2C8 = CYP2C8 (Homo sapiens, UniProt P10632); assay: in vitro; conditions: probe Amodiaquine
Chain of CYP2C8 (P10632 whole entry): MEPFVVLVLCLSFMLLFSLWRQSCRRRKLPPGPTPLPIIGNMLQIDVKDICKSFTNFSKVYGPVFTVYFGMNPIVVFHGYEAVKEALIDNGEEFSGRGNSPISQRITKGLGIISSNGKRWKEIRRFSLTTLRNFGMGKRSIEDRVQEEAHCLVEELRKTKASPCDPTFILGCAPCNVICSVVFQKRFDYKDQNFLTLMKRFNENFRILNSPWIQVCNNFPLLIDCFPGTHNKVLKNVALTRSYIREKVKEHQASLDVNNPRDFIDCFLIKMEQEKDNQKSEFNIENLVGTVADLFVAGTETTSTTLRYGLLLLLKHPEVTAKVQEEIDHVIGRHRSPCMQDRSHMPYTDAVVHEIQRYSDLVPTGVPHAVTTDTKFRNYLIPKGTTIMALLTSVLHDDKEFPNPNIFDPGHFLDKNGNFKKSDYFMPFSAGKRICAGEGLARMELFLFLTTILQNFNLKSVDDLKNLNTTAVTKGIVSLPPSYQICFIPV

Chain of CYP2B6 (P20813 whole entry): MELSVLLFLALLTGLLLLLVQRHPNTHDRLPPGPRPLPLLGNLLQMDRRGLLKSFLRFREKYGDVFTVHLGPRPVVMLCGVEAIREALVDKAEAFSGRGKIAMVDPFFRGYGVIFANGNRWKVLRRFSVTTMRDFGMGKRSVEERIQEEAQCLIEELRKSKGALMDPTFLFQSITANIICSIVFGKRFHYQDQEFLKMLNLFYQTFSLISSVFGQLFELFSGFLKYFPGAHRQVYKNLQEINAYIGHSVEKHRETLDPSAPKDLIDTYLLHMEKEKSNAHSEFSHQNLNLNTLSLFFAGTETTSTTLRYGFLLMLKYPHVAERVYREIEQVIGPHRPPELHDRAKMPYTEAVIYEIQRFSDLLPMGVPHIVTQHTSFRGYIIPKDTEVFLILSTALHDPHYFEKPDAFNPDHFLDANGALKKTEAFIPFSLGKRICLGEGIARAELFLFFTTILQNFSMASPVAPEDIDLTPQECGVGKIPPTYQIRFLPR
T1 sequence (Q6RI86 whole entry): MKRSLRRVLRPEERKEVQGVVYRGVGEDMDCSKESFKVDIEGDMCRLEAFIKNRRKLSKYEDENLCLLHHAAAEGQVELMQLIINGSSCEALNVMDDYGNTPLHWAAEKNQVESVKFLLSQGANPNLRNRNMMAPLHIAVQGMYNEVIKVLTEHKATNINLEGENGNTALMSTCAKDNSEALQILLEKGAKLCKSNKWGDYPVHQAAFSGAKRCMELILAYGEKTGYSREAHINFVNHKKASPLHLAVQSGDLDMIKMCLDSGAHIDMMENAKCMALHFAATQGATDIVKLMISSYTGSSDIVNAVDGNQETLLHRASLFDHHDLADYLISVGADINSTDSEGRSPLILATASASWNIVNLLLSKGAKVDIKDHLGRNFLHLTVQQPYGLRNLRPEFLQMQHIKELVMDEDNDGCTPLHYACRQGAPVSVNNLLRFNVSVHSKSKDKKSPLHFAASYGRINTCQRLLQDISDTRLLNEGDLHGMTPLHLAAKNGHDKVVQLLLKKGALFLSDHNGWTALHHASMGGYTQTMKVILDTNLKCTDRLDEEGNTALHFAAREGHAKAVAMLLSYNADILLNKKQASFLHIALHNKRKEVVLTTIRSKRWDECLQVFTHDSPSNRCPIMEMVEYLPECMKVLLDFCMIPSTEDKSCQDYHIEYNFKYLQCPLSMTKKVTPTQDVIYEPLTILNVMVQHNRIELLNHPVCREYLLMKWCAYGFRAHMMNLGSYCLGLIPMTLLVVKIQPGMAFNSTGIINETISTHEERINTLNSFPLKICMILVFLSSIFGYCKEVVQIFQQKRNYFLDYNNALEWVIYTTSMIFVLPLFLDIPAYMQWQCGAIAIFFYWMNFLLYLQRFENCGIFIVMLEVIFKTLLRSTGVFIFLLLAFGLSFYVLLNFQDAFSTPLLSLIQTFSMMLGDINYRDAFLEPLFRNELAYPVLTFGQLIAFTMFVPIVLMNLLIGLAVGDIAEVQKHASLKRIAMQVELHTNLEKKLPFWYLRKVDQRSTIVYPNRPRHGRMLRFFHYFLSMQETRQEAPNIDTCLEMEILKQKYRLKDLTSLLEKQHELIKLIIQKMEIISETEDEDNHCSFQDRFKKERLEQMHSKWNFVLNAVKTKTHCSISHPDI

- solubility at 30 h [1]: 1190 µg/mL (≈ 2190 µM)
- fraction unbound at 6 h, 1 μM ([2]; Human plasma): 0.015
- fraction unbound at 6 h, 1 μM ([2]; Sprague dawley rat plasma): 0.047
- IC50 (rTRPA1): 22.9 ± 4.6 nM
- Exposures based on AUC and Cmax versus dose ([3]; Sprague-Dawley rats, single oral dose 10 mg/kg to 1000 mg/kg): increased with doses up to 1000 mg/kg
- bioavailability ([3]; Sprague-Dawley, rat, plasma, rats, 10 mg/kg oral, micronized suspension in 0.5% methyl cellulose): 85%
- PLASMA ([4]; 0.3 mg/kg PO): 70 ± 11 ng/mL
- PLASMA ([4]; 1 mg/kg PO): 265 ± 56 ng/mL
- PLASMA ([4]; 3 mg/kg PO): 800 ± 160 ng/mL
- PLASMA ([4]; 10 mg/kg PO): 2780 ± 425 ng/mL
- CYP450 isozymes involved in in vitro metabolism [5]: involved mainly the CYP3A4 isozymes
- inhibition at 10 µM (CYP2B6): 15.1%
- inhibition at 10 µM (CYP2C8): 3.2%
SMILES: C[C@@H](C(=O)Nc1ccnc(-c2cnc(N3CCC[C@H]3C(F)(F)F)nc2)n1)n1cnc2c1c(=O)n(C)c(=O)n2C [Compound 2, (S)-2-(1,3-dimethyl-2,6-dioxo-2,3-dihydro-1H-purin-7(6H)-yl)-N-(2′-((S)-2-(trifluoromethyl)pyrrolidin-1-yl)-[2,5′-bipyrimidin]-4-yl)propanamide]
- ALP d28 (sprague-dawley rats; 30 mg/kg/day oral): 168.0 U/L
- ALT d28 (sprague-dawley rats; 30 mg/kg/day oral): 33.0 U/L
- AST d28 (sprague-dawley rats; 30 mg/kg/day oral): 98.0 U/L
- GGT d28 (sprague-dawley rats; 30 mg/kg/day oral): 0.0 U/L
- ALP d28 (sprague-dawley rats; 100 mg/kg/day oral): 185.0 U/L
- ALT d28 (sprague-dawley rats; 100 mg/kg/day oral): 34.0 U/L
- AST d28 (sprague-dawley rats; 100 mg/kg/day oral): 100.0 U/L
- GGT d28 (sprague-dawley rats; 100 mg/kg/day oral): 0.0 U/L
- ALP d28 (sprague-dawley rats; 300 mg/kg/day oral): 163.0 U/L
- ALT d28 (sprague-dawley rats; 300 mg/kg/day oral): 43.0 U/L
- AST d28 (sprague-dawley rats; 300 mg/kg/day oral): 115.0 U/L
- GGT d28 (sprague-dawley rats; 300 mg/kg/day oral): 0.0 U/L
- serum biomarkers of hepatotoxicity (ALT, AST, ALP, GGT) (sprague-dawley rats; sprague-dawley rats, oral once daily for 28 days): did not elevate the serum biomarkers up to and including a dose of 300 mg/kg
- ALP d28 (cynomolgus monkeys; 10 mg/kg/day nasogastric): 744.0 U/L
- ALT d28 (cynomolgus monkeys; 10 mg/kg/day nasogastric): 87.0 U/L
- AST d28 (cynomolgus monkeys; 10 mg/kg/day nasogastric): 126.0 U/L
- GGT d28 (cynomolgus monkeys; 10 mg/kg/day nasogastric): 64.0 U/L
- ALP d28 (cynomolgus monkeys; 30 mg/kg/day nasogastric): 461.0 U/L
- ALT d28 (cynomolgus monkeys; 30 mg/kg/day nasogastric): 50.0 U/L
- AST d28 (cynomolgus monkeys; 30 mg/kg/day nasogastric): 72.0 U/L
- GGT d28 (cynomolgus monkeys; 30 mg/kg/day nasogastric): 49.0 U/L
- ALP d28 (cynomolgus monkeys; 100 mg/kg/day nasogastric): 532.0 U/L
- ALT d28 (cynomolgus monkeys; 100 mg/kg/day nasogastric): 61.0 U/L
- AST d28 (cynomolgus monkeys; 100 mg/kg/day nasogastric): 70.0 U/L
- GGT d28 (cynomolgus monkeys; 100 mg/kg/day nasogastric): 53.7 U/L
- ALP d28 (cynomolgus monkeys; 300 mg/kg/day nasogastric): 441.0 U/L
- ALT d28 (cynomolgus monkeys; 300 mg/kg/day nasogastric): 67.0 U/L
- AST d28 (cynomolgus monkeys; 300 mg/kg/day nasogastric): 134.0 U/L
- GGT d28 (cynomolgus monkeys; 300 mg/kg/day nasogastric): 54.8 U/L
- serum biomarkers of hepatotoxicity (ALT, AST, ALP, GGT) (cynomolgus monkeys; cynomolgus monkeys, once daily for 28 or 29 days): did not elevate the serum biomarkers up to and including a dose of 300 mg/kg
